From article PMC3411833, “The Two PPX-GppA Homologues from Mycobacterium tuberculosis Have Distinct Biochemical Activities” (PLoS ONE, 2012)

How the values were obtained:
[1] = molecular target: T1, MTB-PPX1 (Rv0496) (Mycobacterium tuberculosis, UniProt P9WHV5)
[2] = molecular target: T1, MTB-PPX1 (Rv0496); remark: listed apart in the source
[3] = molecular target: T2, Rv1026 (Mycobacterium tuberculosis, UniProt P96374)
T2 construct: gene ppx2
T2 sequence (P96374 whole entry): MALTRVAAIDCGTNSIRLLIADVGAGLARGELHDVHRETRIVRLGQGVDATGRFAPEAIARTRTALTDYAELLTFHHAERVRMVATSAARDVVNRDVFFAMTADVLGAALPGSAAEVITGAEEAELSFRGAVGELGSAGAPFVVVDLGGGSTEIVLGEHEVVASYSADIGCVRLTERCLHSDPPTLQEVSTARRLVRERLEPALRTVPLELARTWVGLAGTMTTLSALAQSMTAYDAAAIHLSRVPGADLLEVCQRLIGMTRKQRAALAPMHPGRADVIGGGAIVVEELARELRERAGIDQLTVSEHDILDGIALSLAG

T1 sequence (P9WHV5 whole entry): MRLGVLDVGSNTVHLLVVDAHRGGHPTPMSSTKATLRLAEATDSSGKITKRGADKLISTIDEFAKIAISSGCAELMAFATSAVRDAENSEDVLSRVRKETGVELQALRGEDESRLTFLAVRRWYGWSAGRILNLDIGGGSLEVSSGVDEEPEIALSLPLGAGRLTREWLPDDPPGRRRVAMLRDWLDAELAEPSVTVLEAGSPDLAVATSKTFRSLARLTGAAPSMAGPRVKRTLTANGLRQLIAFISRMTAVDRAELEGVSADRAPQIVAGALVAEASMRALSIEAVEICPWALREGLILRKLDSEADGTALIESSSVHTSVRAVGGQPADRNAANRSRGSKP

| SMILES | Exopolyphosphatase activities / +1 mM ppGpp / (% decrease) / ATPase activities [1] [%] | Exopolyphosphatase activities / +1 mM pppGpp / (% decrease) / ATPase activities [2] [%] | Exopolyphosphatase activities / +1 mM pppGpp / (% decrease) / ATPase activities [3] [%] |
| --- | --- | --- | --- |
| Nc1nc2c(ncn2[C@@H]2O[C@H](COP(=O)(O)OP(=O)(O)O)[C@@H](OP(=O)(O)OP(=O)(O)O)[C@H]2O)c(=O)[nH]1 [ppGpp, guanosine 3′,5′-bisdiphosphate] | 5.9±0.7 | – | – |
| Nc1nc2c(ncn2[C@@H]2O[C@H](COP(=O)(O)OP(=O)(O)OP(=O)(O)O)[C@@H](OP(=O)(O)OP(=O)(O)O)[C@H]2O)c(=O)[nH]1 [pppGpp, guanosine 5′-triphosphate, 3′-diphosphate] | – | 37.9±6.7 | 32.3±9.4 |
